Assay results from ChEMBL document CHEMBL1201862, “PubChem BioAssay data set” (2004).
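How tested: cells in 96-well plates exposed to compound for 48 hours at five concentrations. The concentration for 50% growth inhibition is given as GI50.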 Calls of active or inactive are those of the source. Cut-off read from the data, not from the text of the source: active = GI50 up to about 1.1 µM and inactive = higher.

What was measured:
Test in all cases: NCI tumour cell line growth inhibition, 48 h
[1] = system: IGROV-1
[2] = system: KM12
[3] = system: SNB-19
[4] = system: SK-OV-3
[5] = system: OVCAR-4
[6] = system: NCI-H522
[7] = system: RXF 393
[8] = system: HCT-15
[9] = system: NCI-H226
[10] = system: HOP-62
[11] = system: UACC-257
[12] = system: SR
[13] = system: UACC-62
[14] = system: NCI-H23
[15] = system: HOP-92
[16] = system: HCC 2998
[17] = system: UO-31
[18] = system: MDA-MB-231
[19] = system: RPMI-8226
[20] = system: SF-295
[21] = system: OVCAR-5
[22] = system: MDA-N
[23] = system: OVCAR-8
[24] = system: DU-145
[25] = system: COLO 205
[26] = system: EKVX
[27] = system: T47D
[28] = system: LOX IMVI
[29] = system: CAKI-1
[30] = system: MOLT-4
[31] = system: A549
[32] = system: ACHN
[33] = system: CCRF-CEM
[34] = system: M14
[35] = system: U-251
[36] = system: Malme-3M
[37] = system: SK-MEL-2
[38] = system: MCF7
[39] = system: SK-MEL-28
[40] = system: NCI/ADR-RES
[41] = system: Hs-578T
[42] = system: HL-60
[43] = system: SN12C
[44] = system: MDA-MB-435
[45] = system: NCI-H460
[46] = system: K562
[47] = system: BT-549
[48] = system: HCT-116
[49] = system: PC-3
[50] = system: SK-MEL-5
[51] = system: HT-29
[52] = system: TK-10
[53] = system: 786-0
[54] = system: OVCAR-3
[55] = system: SF-268
[56] = system: SW-620
[57] = system: SNB-75
[58] = system: SF-539

With `O=C1CC(C(=O)O)Cc2c(Br)ccc(O)c21` (centres undefined) as the molecule, how does the GI50 [1] read?
Its GI50 is > 100 µM (inactive).

And the GI50 [2]?
The GI50 was > 100 µM (inactive).

And the GI50 [3]?
Its GI50 is > 100 µM (inactive).

And the GI50 [4]?
Its GI50 is > 100 µM (inactive).

And the GI50 [5]?
Its GI50 is > 100 µM (inactive).

And the GI50 [6]?
The GI50 was > 100 µM (inactive).

And the GI50 [7]?
Its GI50 is > 100 µM (inactive).

And the GI50 [8]?
Its GI50 is over 100 µM.

What about the GI50 [9] of the same molecule?
Its GI50 is 95.9 µM (inactive).

And the GI50 [10]?
Its GI50 is > 100 µM (inactive).

And the GI50 [11]?
Its GI50 is > 100 µM (inactive).

And the GI50 [12]?
Its GI50 is 43.7 µM (inactive).

What about the GI50 [13] of the same molecule?
Its GI50 is > 100 µM (inactive).

And the GI50 [14]?
Its GI50 is > 100 µM (inactive).

And the GI50 [15]?
Its GI50 is 29 µM (inactive).

What about the GI50 [16] of the same molecule?
Its GI50 is > 100 µM (inactive).

And the GI50 [17]?
The GI50 was > 100 µM (inactive).

What about the GI50 [18] of the same molecule?
The GI50 was > 100 µM (inactive).

And the GI50 [19]?
Its GI50 is > 100 µM (inactive).

And the GI50 [20]?
The GI50 was > 100 µM (inactive).

What about the GI50 [21] of the same molecule?
Its GI50 is > 100 µM (inactive).

What about the GI50 [22] of the same molecule?
The GI50 was > 100 µM (inactive).

And the GI50 [23]?
The GI50 was > 100 µM (inactive).

What about the GI50 [24] of the same molecule?
Its GI50 is > 100 µM (inactive).

And the GI50 [25]?
The GI50 was > 100 µM (inactive).

And the GI50 [26]?
Its GI50 is 78.2 µM (inactive).

And the GI50 [27]?
The GI50 was > 100 µM (inactive).

What about the GI50 [28] of the same molecule?
The GI50 was > 100 µM (inactive).

And the GI50 [29]?
Its GI50 is > 100 µM (inactive).

And the GI50 [30]?
Its GI50 is > 100 µM (inactive).

And the GI50 [31]?
Its GI50 is > 100 µM (inactive).

What about the GI50 [32] of the same molecule?
The GI50 was > 100 µM (inactive).

What about the GI50 [33] of the same molecule?
The GI50 was > 100 µM (inactive).

What about the GI50 [34] of the same molecule?
Its GI50 is > 100 µM (inactive).

What about the GI50 [35] of the same molecule?
The GI50 was > 100 µM (inactive).

And the GI50 [36]?
Its GI50 is > 100 µM (inactive).

And the GI50 [37]?
The GI50 was > 100 µM (inactive).

And the GI50 [38]?
The GI50 was > 100 µM (inactive).

And the GI50 [39]?
Its GI50 is > 100 µM (inactive).

And the GI50 [40]?
The GI50 was > 100 µM (inactive).

What about the GI50 [41] of the same molecule?
Its GI50 is > 100 µM (inactive).

What about the GI50 [42] of the same molecule?
Its GI50 is > 100 µM (inactive).

What about the GI50 [43] of the same molecule?
Its GI50 is > 100 µM (inactive).

What about the GI50 [44] of the same molecule?
The GI50 was > 100 µM (inactive).

What about the GI50 [45] of the same molecule?
The GI50 was > 100 µM (inactive).

And the GI50 [46]?
The GI50 was > 100 µM (inactive).

What about the GI50 [47] of the same molecule?
The GI50 was > 100 µM (inactive).

What about the GI50 [48] of the same molecule?
Its GI50 is > 100 µM (inactive).

What about the GI50 [49] of the same molecule?
The GI50 was > 100 µM (inactive).

And the GI50 [50]?
Its GI50 is > 100 µM (inactive).

And the GI50 [51]?
Its GI50 is > 100 µM (inactive).

What about the GI50 [52] of the same molecule?
Its GI50 is > 100 µM (inactive).

What about the GI50 [53] of the same molecule?
Its GI50 is > 100 µM (inactive).

What about the GI50 [54] of the same molecule?
Its GI50 is > 100 µM (inactive).

And the GI50 [55]?
Its GI50 is > 100 µM (inactive).

How did the GI50 [1] turn out when `CC(=O)O[C@@H]1CC2[C@@H](CCC3Cc4nc5c(nc4C[C@@]32C)CC2CC[C@@H]3C(CC[C@@]4(C)C3CC[C@@H]4C(C)CCCC(C)C)[C@@]2(C)C5)C2C[C@@H]3OC4(CCC(C)CO4)C(C)[C@@H]3[C@]21C` (some centres undefined) was run?
The GI50 was > 100 µM (inactive).

And the GI50 [2]?
Its GI50 is > 100 µM (inactive).

What about the GI50 [3] of the same molecule?
Its GI50 is 65.2 µM (inactive).

And the GI50 [4]?
The GI50 was 3.04 µM (inactive).

And the GI50 [5]?
The GI50 was > 100 µM (inactive).

What about the GI50 [6] of the same molecule?
Its GI50 is > 100 µM (inactive).

And the GI50 [7]?
Its GI50 is 19.9 µM (inactive).

What about the GI50 [8] of the same molecule?
Its GI50 is over 100 µM.

What about the GI50 [9] of the same molecule?
The GI50 was 23.4 µM (inactive).

What about the GI50 [10] of the same molecule?
The GI50 was 22.8 µM (inactive).

And the GI50 [11]?
The GI50 was > 100 µM (inactive).

What about the GI50 [12] of the same molecule?
The GI50 was > 100 µM (inactive).

And the GI50 [56]?
The GI50 was > 100 µM (inactive).

What about the GI50 [13] of the same molecule?
The GI50 was 2.01 µM (inactive).

What about the GI50 [14] of the same molecule?
The GI50 was > 100 µM (inactive).

And the GI50 [15]?
Its GI50 is 25.6 µM (inactive).

And the GI50 [16]?
The GI50 was > 100 µM (inactive).

What about the GI50 [18] of the same molecule?
Its GI50 is > 100 µM (inactive).

What about the GI50 [19] of the same molecule?
The GI50 was > 100 µM (inactive).

And the GI50 [20]?
The GI50 was 53.8 µM (inactive).

And the GI50 [21]?
Its GI50 is > 100 µM (inactive).

What about the GI50 [22] of the same molecule?
Its GI50 is > 100 µM (inactive).

And the GI50 [23]?
The GI50 was > 100 µM (inactive).

What about the GI50 [24] of the same molecule?
The GI50 was > 100 µM (inactive).

And the GI50 [25]?
Its GI50 is > 100 µM (inactive).

What about the GI50 [26] of the same molecule?
Its GI50 is > 100 µM (inactive).

And the GI50 [27]?
Its GI50 is > 100 µM (inactive).

And the GI50 [30]?
Its GI50 is > 100 µM (inactive).

And the GI50 [31]?
Its GI50 is > 100 µM (inactive).

What about the GI50 [32] of the same molecule?
Its GI50 is 55.7 µM (inactive).

And the GI50 [33]?
The GI50 was > 100 µM (inactive).

And the GI50 [57]?
Its GI50 is 2.74 µM (inactive).

And the GI50 [34]?
The GI50 was > 100 µM (inactive).

And the GI50 [58]?
The GI50 was > 100 µM (inactive).

And the GI50 [35]?
Its GI50 is 84.1 µM (inactive).

And the GI50 [36]?
Its GI50 is > 100 µM (inactive).

What about the GI50 [38] of the same molecule?
The GI50 was > 100 µM (inactive).

And the GI50 [39]?
The GI50 was > 100 µM (inactive).

And the GI50 [40]?
The GI50 was 30.3 µM (inactive).

And the GI50 [41]?
The GI50 was 21.1 µM (inactive).

And the GI50 [42]?
The GI50 was > 100 µM (inactive).

What about the GI50 [43] of the same molecule?
Its GI50 is > 100 µM (inactive).

And the GI50 [44]?
Its GI50 is > 100 µM (inactive).

And the GI50 [45]?
The GI50 was > 100 µM (inactive).

What about the GI50 [46] of the same molecule?
Its GI50 is > 100 µM (inactive).

And the GI50 [47]?
The GI50 was > 100 µM (inactive).

And the GI50 [48]?
Its GI50 is > 100 µM (inactive).

What about the GI50 [49] of the same molecule?
The GI50 was > 100 µM (inactive).

And the GI50 [50]?
Its GI50 is > 100 µM (inactive).

What about the GI50 [51] of the same molecule?
Its GI50 is > 100 µM (inactive).

What about the GI50 [52] of the same molecule?
The GI50 was 33.1 µM (inactive).

What about the GI50 [53] of the same molecule?
Its GI50 is 53.7 µM (inactive).

And the GI50 [54]?
The GI50 was > 100 µM (inactive).

And the GI50 [55]?
The GI50 was 39.3 µM (inactive).
